What was measured:
Test in all cases: combination Emax (second highest fraction inhibited in the dose matrix, 72 h); higher = more inhibition; extreme values may be limits of the assay
[1] = system: 8505C (Thyroid Gland Carcinoma)
Outline: (§1)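 After 24 hours at 37°C and 5% CO2 in 1536-well plates, cells in DMEM/F12 or RPMI plus 10% FBS received two-drug dose matrices for 72 hours. Viability came from CellTiter-Glo 2.0 luminescence and was scaled as inhibition, anchored at 0 by vehicle wells and at 1 by blank wells. Combination Emax is taken as the second-highest inhibition in the matrix, and Bliss excess as the observed combination effect less EA + EB − EA·EB, with EA and EB the single-agent effects.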

[2] = system: CHSA8926 (Chondrosarcoma)
Outline: as §1

[3] = system: CW-2 (Colorectal Carcinoma)
Outline: as §1

G-361 (Melanoma) = system: G-361 (Melanoma)
Outline: as §1

[4] = system: HCC1419 (Breast Carcinoma)
Outline: as §1

[5] = system: JHH-4 (Hepatocellular Carcinoma)
Outline: as §1

[6] = system: KMS-12-BM (Plasma Cell Myeloma)
Outline: as §1

[7] = system: KU812 (Chronic Myelogenous Leukemia)
Outline: as §1

[8] = system: KYSE-270 (Esophageal Squamous Cell Carcinoma)
Outline: as §1

M059J (Glioblastoma) = system: M059J (Glioblastoma)
Outline: as §1

[9] = system: MOG-G-CCM (Low Grade Glioma)
Outline: as §1

[10] = system: NCCIT (Other Solid Carcinomas)
Outline: as §1

[11] = system: NCI-H3122 (Lung Adenocarcinoma)
Outline: as §1

[12] = system: NCI-H520 (Squamous Cell Lung Carcinoma)
Outline: as §1

[13] = system: NCI-H929 (Plasma Cell Myeloma)
Outline: as §1

RD (Rhabdomyosarcoma) = system: RD (Rhabdomyosarcoma)
Outline: as §1

SJSA-1 (Osteosarcoma) = system: SJSA-1 (Osteosarcoma)
Outline: as §1

[14] = system: SK-GT-4 (Esophageal Adenocarcinoma)
Outline: as §1

[15] = system: SU-DHL-5 (B-Cell Non-Hodgkin's Lymphoma)
Outline: as §1

[16] = system: T-T (Esophageal Squamous Cell Carcinoma)
Outline: as §1

Structure (SMILES) | combination Emax [1] | combination Emax [2] | combination Emax [3] | combination Emax (G-361 (Melanoma)) | combination Emax [4] | combination Emax [5] | combination Emax [6] | combination Emax [7] | combination Emax [8] | combination Emax (M059J (Glioblastoma)) | combination Emax [9] | combination Emax [10] | combination Emax [11] | combination Emax [12] | combination Emax [13] | combination Emax (RD (Rhabdomyosarcoma)) | combination Emax (SJSA-1 (Osteosarcoma)) | combination Emax [14] | combination Emax [15] | combination Emax [16]
C[C@@H](c1ccc2nccn2c1)n1nnc2ncc(-c3cnn(C)c3)nc21 [Savolitinib] + CC1(C)CCC(CN2CCN(c3ccc(C(=O)NS(=O)(=O)c4ccc(NCC5CCOCC5)c([N+](=O)[O-])c4)c(Oc4cnc5[nH]ccc5c4)c3)CC2)=C(c2ccc(Cl)cc2)C1 [Venetoclax] (first compound max 1 µM, 7x7, partner max 1 µM) | 0.12 | 0.29 | 0.117 | 0.106 | 0.268 | 0.539 | 0.97 | 0.245 | 0.15 | 0.182 | 0.204 | 0.182 | 0.153 | 0.138 | 0.261 | 0.143 | 0.109 | 0.101 | 0.142 | 0.236
C[C@@H](c1ccc2nccn2c1)n1nnc2ncc(-c3cnn(C)c3)nc21 [Savolitinib] + Cc1c2c(nn1C)CSCc1cc(n(C)n1)CSc1cc(c3ccccc3c1)OCCCc1c(C(=O)O)n(C)c3c-2c(Cl)ccc13 [AZD5991] (first compound max 1 µM, 7x7, partner max 1 µM) | 0.173 | 0.318 | 0.157 | 0.358 | 0.255 | 0.182 | 1 | 0.708 | 0.652 | 0.204 | 0.212 | 0.457 | 0.188 | 0.208 | 1 | 0.21 | 0.265 | 0.14 | 1 | 0.836
Cn1cnc2c(F)c(Nc3ccc(Br)cc3Cl)c(C(=O)NOCCO)cc21 [Selumetinib] + C=CCn1c(=O)c2cnc(Nc3ccc(N4CCN(C)CC4)cc3)nc2n1-c1cccc(C(C)(C)O)n1 [AZD1775] (first compound max 10 µM, partner max 1 µM) | 0.425 | 0.556 | 0.464 | 0.826 | 0.0435 | 0.728 | 0.916 | 0.965 | 0.723 | 0.262 | 0.357 | 0.773 | 0.78 | 0.295 | 0.684 | 0.669 | 0.449 | 0.528 | 0.984 | 0.301
Cn1cnc2c(F)c(Nc3ccc(Br)cc3Cl)c(C(=O)NOCCO)cc21 [Selumetinib] + CC(C)n1c(=O)n(C)c2cnc3cc(F)c(-c4ccc(OCCCN5CCCCC5)nc4)cc3c21 [AZD1390] (first compound max 10 µM, 7x7, partner max 0.3 µM) | 0.584 | 0.185 | 0.252 | 0.674 | 0.152 | 0.605 | 0.295 | 0.949 | 0.25 | 0.107 | 0.125 | 0.0608 | 0.552 | 0.147 | 0.611 | 0.24 | 0.307 | 0.516 | 0.299 | 0.264
Cn1cnc2c(F)c(Nc3ccc(Br)cc3Cl)c(C(=O)NOCCO)cc21 [Selumetinib] + CCN(CCO)CCCOc1ccc2c(Nc3cc(CC(=O)Nc4cccc(F)c4)[nH]n3)ncnc2c1 [AZD2811] (first compound max 10 µM, 7x7, partner max 1 µM) | 0.388 | 0.139 | 0.349 | 0.798 | 0.113 | 0.63 | 0.397 | 0.951 | 0.295 | 0.237 | 0.457 | 0.109 | 0.653 | 0.17 | 0.698 | 0.297 | 0.384 | 0.533 | 0.915 | 0.269
Cn1cnc2c(F)c(Nc3ccc(Br)cc3Cl)c(C(=O)NOCCO)cc21 [Selumetinib] + C[C@@H]1COCCN1C2=NC(=NC(=C2)C3(CC3)[S@](=N)(=O)C)C4=C5C=CNC5=NC=C4 [AZD6738] (first compound max 10 µM, 7x7, partner max 10 µM) | 0.515 | 0.404 | 0.501 | 0.848 | 0.174 | 0.752 | 0.865 | 0.969 | 0.524 | 0.291 | 0.502 | 0.649 | 0.734 | 0.406 | 0.882 | 0.522 | 0.559 | 0.616 | 1 | 0.292
CC1(C)CCC(CN2CCN(c3ccc(C(=O)NS(=O)(=O)c4ccc(NCC5CCOCC5)c([N+](=O)[O-])c4)c(Oc4cnc5[nH]ccc5c4)c3)CC2)=C(c2ccc(Cl)cc2)C1 [Venetoclax] + C1CN(CCC1(C(=O)N[C@@H](CCO)C2=CC=C(C=C2)Cl)N)C3=NC=NC4=C3C=CN4 [Capivasertib] (first compound max 1 µM, 7x7, partner max 3 µM) | 0.139 | 0.331 | 0.163 | 0.159 | 0.53 | 0.119 | 1 | 0.48 | 0.711 | 0.396 | 0.348 | 0.398 | 0.362 | 0.609 | 0.997 | 0.198 | 0.31 | 0.484 | 0.915 | 0.221
CC1(C)CCC(CN2CCN(c3ccc(C(=O)NS(=O)(=O)c4ccc(NCC5CCOCC5)c([N+](=O)[O-])c4)c(Oc4cnc5[nH]ccc5c4)c3)CC2)=C(c2ccc(Cl)cc2)C1 [Venetoclax] + C=CCn1c(=O)c2cnc(Nc3ccc(N4CCN(C)CC4)cc3)nc2n1-c1cccc(C(C)(C)O)n1 [AZD1775] (first compound max 1 µM, partner max 1 µM) | 0.244 | 0.57 | 0.311 | 0.589 | 0.254 | 0.343 | 1 | 0.776 | 0.946 | 0.713 | 0.688 | 0.907 | 0.734 | 0.647 | 0.659 | 0.546 | 0.453 | 0.715 | 0.986 | 0.711
CC1(C)CCC(CN2CCN(c3ccc(C(=O)NS(=O)(=O)c4ccc(NCC5CCOCC5)c([N+](=O)[O-])c4)c(Oc4cnc5[nH]ccc5c4)c3)CC2)=C(c2ccc(Cl)cc2)C1 [Venetoclax] + CCN(CCO)CCCOc1ccc2c(Nc3cc(CC(=O)Nc4cccc(F)c4)[nH]n3)ncnc2c1 [AZD2811] (first compound max 1 µM, 7x7, partner max 1 µM) | 0.211 | 0.34 | 0.177 | 0.285 | 0.212 | 0.205 | 1 | 0.65 | 0.716 | 0.375 | 0.485 | 0.282 | 0.33 | 0.258 | 0.391 | 0.172 | 0.222 | 0.409 | 0.778 | 0.181
CC1(C)CCC(CN2CCN(c3ccc(C(=O)NS(=O)(=O)c4ccc(NCC5CCOCC5)c([N+](=O)[O-])c4)c(Oc4cnc5[nH]ccc5c4)c3)CC2)=C(c2ccc(Cl)cc2)C1 [Venetoclax] + CN(C)CCCOc1ccc(-c2ccc3ncc4c(c3c2)n(C2CCOCC2)c(=O)n4C)cn1 [AZD0156] (first compound max 1 µM, 7x7, partner max 1 µM) | 0.2 | 0.212 | 0.174 | 0.115 | 0.289 | 0.234 | 1 | 0.403 | 0.785 | 0.169 | 0.385 | 0.275 | 0.264 | 0.354 | 0.691 | 0.161 | 0.177 | 0.392 | 0.455 | 0.204
CC1(C)CCC(CN2CCN(c3ccc(C(=O)NS(=O)(=O)c4ccc(NCC5CCOCC5)c([N+](=O)[O-])c4)c(Oc4cnc5[nH]ccc5c4)c3)CC2)=C(c2ccc(Cl)cc2)C1 [Venetoclax] + COc1cc(Nc2ncc3c(n2)-c2ccc(Cl)cc2C(c2c(F)cccc2OC)=NC3)ccc1C(=O)O [Alisertib] (first compound max 1 µM, 7x7, partner max 10 µM) | 0.275 | 0.531 | 0.16 | 0.415 | 0.15 | 0.602 | 1 | 0.838 | 0.627 | 0.636 | 0.806 | 0.51 | 0.336 | 0.54 | 0.662 | 0.543 | 0.33 | 0.444 | 0.803 | 0.487
CC1(C)CCC(CN2CCN(c3ccc(C(=O)NS(=O)(=O)c4ccc(NCC5CCOCC5)c([N+](=O)[O-])c4)c(Oc4cnc5[nH]ccc5c4)c3)CC2)=C(c2ccc(Cl)cc2)C1 [Venetoclax] + C[C@@H]1COCCN1C2=NC(=NC(=C2)C3(CC3)[S@](=N)(=O)C)C4=C5C=CNC5=NC=C4 [AZD6738] (first compound max 1 µM, 7x7, partner max 10 µM) | 0.482 | 0.469 | 0.403 | 0.599 | 0.343 | 0.254 | 1 | 0.83 | 0.869 | 0.526 | 0.538 | 0.607 | 0.652 | 0.654 | 0.78 | 0.372 | 0.478 | 0.589 | 1 | 0.485

Source: the supplement of paper PMC11061612
